Laboratory results as given in US20220169628A1 (University of Florida Research Foundation, Incorporated, priority 2019, published 2022).
Where two headings read alike, the source gives them in different places.

What was measured:
MOLT-4 cells = test: Cell viability assay, MTS, 48 h, MOLT-4; type: cell-based; conditions: 48 hours, read-out: IC50 (48 hours) MOLT-4
Description: (§1) Acute lymphoblastic leukemia cells (MOLT-4 and RS4; 11) or small cell lung cancer (NCI-H146 or simply H146) were incubated with increasing concentrations of Bcl-xL degraders for 48 h. Cell viability was measured by tetrazolium-based MTS assay.

RS4;11 cells = test: Cell viability assay, MTS, 48 h, RS4;11; type: cell-based; conditions: 48 hours, read-out: IC50 (48 hours) RS4;11
Description: as §1

SMILES	IC50 (MOLT-4 cells; Homo sapiens, MOLT-4, 48 h)	IC50 (RS4;11 cells; Homo sapiens, RS4-11, 48 h)	IC50 (MOLT-4 cells)	IC50 (RS4;11 cells)
Cc1ncsc1-c1ccc([C@H](C)NC(=O)[C@@H]2C[C@@H](O)CN2C(=O)[C@@H](NC(=O)C[C@H]2CC[C@H](CC(=O)N3CCC4(CCN(CC5(C)CCC(c6ccc(Cl)cc6)=C(CN6CCN(c7ccc(C(=O)NS(=O)(=O)c8ccc(N[C@H](CCN9CCOCC9)CSc9ccccc9)c(S(=O)(=O)C(F)(F)F)c8)cc7)CC6)C5)CC4)CC3)CC2)C(C)(C)C)cc1 (relative stereo) [degrader #39]			50 to 150 nM	< 50 nM
Cc1ncsc1-c1ccc([C@H](C)NC(=O)[C@@H]2C[C@@H](O)CN2C(=O)[C@@H](NC(=O)CCCC(=O)N2CCN(CCN(C)CC3(C)CCC(c4ccc(Cl)cc4)=C(CN4CCN(c5ccc(C(=O)NS(=O)(=O)c6ccc(N[C@H](CCN7CCOCC7)CSc7ccccc7)c(S(=O)(=O)C(F)(F)F)c6)cc5)CC4)C3)CC2)C(C)(C)C)cc1 (stereo partly shown) [compound 57]	150 to 500 nM	150 to 500 nM		
Cc1ncsc1-c1ccc([C@H](C)NC(=O)[C@@H]2C[C@@H](O)CN2C(=O)[C@@H](NC(=O)CCCCCC(=O)NCCN(C)CC2(C)CCC(c3ccc(Cl)cc3)=C(CN3CCN(c4ccc(C(=O)NS(=O)(=O)c5ccc(N[C@H](CCN6CCOCC6)CSc6ccccc6)c(S(=O)(=O)C(F)(F)F)c5)cc4)CC3)C2)C(C)(C)C)cc1 (stereo partly shown) [compound 60]	150 to 500 nM	150 to 500 nM		
Cc1ncsc1-c1ccc([C@H](C)NC(=O)[C@@H]2C[C@@H](O)CN2C(=O)[C@@H](NC(=O)CCCCCCC(=O)NCCN(C)CC2(C)CCC(c3ccc(Cl)cc3)=C(CN3CCN(c4ccc(C(=O)NS(=O)(=O)c5ccc(N[C@H](CCN6CCOCC6)CSc6ccccc6)c(S(=O)(=O)C(F)(F)F)c5)cc4)CC3)C2)C(C)(C)C)cc1 (stereo partly drawn) [compound 61, N1-(2-(((4′-chloro-4-methyl-6-((4-(4-(((4-(((R)-4-morpholino-1-(phenylthio)butan-2-yl)amino)-3-((trifluoromethyl)sulfonyl)phenyl)sulfonyl)carbamoyl)phenyl)piperazin-1-yl)methyl)-2,3,4,5-tetrahydro-[1,1′-biphenyl]-4-yl)methyl)(methyl)amino)ethyl)-N8-((S)-1-((2S,4R)-4-hydroxy-2-(((S)-1-(4-(4-methylthiazol-5-yl)phenyl)ethyl)carbamoyl)pyrrolidin-1-yl)-3,3-dimethyl-1-oxobutan-2-yl)octanediamide]	150 to 500 nM	50 to 150 nM		
Cc1ncsc1-c1ccc([C@H](C)NC(=O)[C@@H]2C[C@@H](O)CN2C(=O)[C@@H](NC(=O)CCCCCCCC(=O)NCCN(C)CC2(C)CCC(c3ccc(Cl)cc3)=C(CN3CCN(c4ccc(C(=O)NS(=O)(=O)c5ccc(N[C@H](CCN6CCOCC6)CSc6ccccc6)c(S(=O)(=O)C(F)(F)F)c5)cc4)CC3)C2)C(C)(C)C)cc1 (stereo partly shown) [compound 62]	150 to 500 nM	< 50 nM		
Cc1ncsc1-c1ccc([C@H](C)NC(=O)[C@@H]2C[C@@H](O)CN2C(=O)[C@@H](NC(=O)CCCC(=O)N2CCN(C(=O)C3(C)CCC(c4ccc(Cl)cc4)=C(CN4CCN(c5ccc(C(=O)NS(=O)(=O)c6ccc(N[C@H](CCN7CCOCC7)CSc7ccccc7)c(S(=O)(=O)C(F)(F)F)c6)cc5)CC4)C3)CC2)C(C)(C)C)cc1 (stereo partly drawn) [compound 63, (2S,4R)-1-((2S)-2-(5-(4-(4′-chloro-4-methyl-6-((4-(4-(((4-(((R)-4-morpholino-1-(phenylthio)butan-2-yl)amino)-3-((trifluoromethyl)sulfonyl)phenyl)sulfonyl)carbamoyl)phenyl)piperazin-1-yl)methyl)-2,3,4,5-tetrahydro-[1,1′-biphenyl]-4-carbonyl)piperazin-1-yl)-5-oxopentanamido)-3,3-dimethylbutanoyl)-4-hydroxy-N—((S)-1-(4-(4-methylthiazol-5-yl)phenyl)ethyl)pyrrolidine-2-carboxamide]	> 500 nM	> 500 nM		
Cc1ncsc1-c1ccc([C@H](C)NC(=O)[C@@H]2C[C@@H](O)CN2C(=O)[C@@H](NC(=O)CCCCCC(=O)N2CCN(C(=O)C3(C)CCC(c4ccc(Cl)cc4)=C(CN4CCN(c5ccc(C(=O)NS(=O)(=O)c6ccc(N[C@H](CCN7CCOCC7)CSc7ccccc7)c(S(=O)(=O)C(F)(F)F)c6)cc5)CC4)C3)CC2)C(C)(C)C)cc1 (stereo partly drawn) [compound 64, (2S,4R)-1-((2S)-2-(7-(4-(4′-chloro-4-methyl-6-((4-(4-(((4-(((R)-4-morpholino-1-(phenylthio)butan-2-yl)amino)-3-((trifluoromethyl)sulfonyl)phenyl)sulfonyl)carbamoyl)phenyl)piperazin-1-yl)methyl)-2,3,4,5-tetrahydro-[1,1′-biphenyl]-4-carbonyl)piperazin-1-yl)-7-oxoheptanamido)-3,3-dimethylbutanoyl)-4-hydroxy-N—((S)-1-(4-(4-methylthiazol-5-yl)phenyl)ethyl)pyrrolidine-2-carboxamide]	50 to 150 nM	50 to 150 nM		
Cc1ncsc1-c1ccc([C@H](C)NC(=O)[C@@H]2C[C@@H](O)CN2C(=O)[C@@H](NC(=O)CN2CCN(CC3(C)CCC(c4ccc(Cl)cc4)=C(CN4CCN(c5ccc(C(=O)NS(=O)(=O)c6ccc(N[C@H](CCN7CCOCC7)CSc7ccccc7)c(S(=O)(=O)C(F)(F)F)c6)cc5)CC4)C3)CC2)C(C)(C)C)cc1 (stereo partly drawn) [compound 67, (2S,4R)-1-((2S)-2-(2-(4-((4′-chloro-4-methyl-6-((4-(4-(((4-(((R)-4-morpholino-1-(phenylthio)butan-2-yl)amino)-3-((trifluoromethyl)sulfonyl)phenyl)sulfonyl)carbamoyl)phenyl)piperazin-1-yl)methyl)-2,3,4,5-tetrahydro-[1,1′-biphenyl]-4-yl)methyl)piperazin-1-yl)acetamido)-3,3-dimethylbutanoyl)-4-hydroxy-N—((S)-1-(4-(4-methylthiazol-5-yl)phenyl)ethyl)pyrrolidine-2-carboxamide]	50 to 150 nM	50 to 150 nM		

The next lines start with results.

IC50 (MOLT-4 cells; Homo sapiens, MOLT-4, 48 h)	IC50 (RS4;11 cells; Homo sapiens, RS4-11, 48 h)	SMILES	IC50 (MOLT-4 cells)	IC50 (RS4;11 cells)
50 to 150 nM	50 to 150 nM	Cc1ncsc1-c1ccc([C@H](C)NC(=O)[C@@H]2C[C@@H](O)CN2C(=O)[C@@H](NC(=O)CCCCCCCN2CCN(CC3(C)CCC(c4ccc(Cl)cc4)=C(CN4CCN(c5ccc(C(=O)NS(=O)(=O)c6ccc(N[C@H](CCN7CCOCC7)CSc7ccccc7)c(S(=O)(=O)C(F)(F)F)c6)cc5)CC4)C3)CC2)C(C)(C)C)cc1 (stereo partly shown) [Compound 53]		
< 50 nM	< 50 nM	Cc1ncsc1-c1ccc([C@H](C)NC(=O)[C@@H]2C[C@@H](O)CN2C(=O)[C@@H](NC(=O)CCCCCN2CCN(CC3(C)CCC(c4ccc(Cl)cc4)=C(CN4CCN(c5ccc(C(=O)NS(=O)(=O)c6ccc(N[C@H](CCN7CCOCC7)CSc7ccccc7)c(S(=O)(=O)C(F)(F)F)c6)cc5)CC4)C3)CC2)C(C)(C)C)cc1 (stereo partly drawn) [Compound 55, N^1-((4′-chloro-4-methyl-6-((4-(4-(((4-(((R)-4-morpholino-1-(phenylthio)butan-2-yl)amino)-3-((trifluoromethyl)sulfonyl)phenyl)sulfonyl)carbamoyl)phenyl)piperazin-1-yl)methyl)-2,3,4,5-tetrahydro-[1,1′-biphenyl]-4-yl)methyl)-N^2—((S)-1-((2S,4R)-4-hydroxy-2-(((S)-1-(4-(4-methylthiazol-5-yl)phenyl)ethyl)carbamoyl)pyrrolidin-1-yl)-3,3-dimethyl-1-oxobutan-2-yl)dodecanediamide]		
50 to 150 nM	50 to 150 nM	Cc1ncsc1-c1ccc([C@H](C)NC(=O)[C@@H]2C[C@@H](O)CN2C(=O)[C@@H](NC(=O)CCCCC(=O)N2CCN(CCN(C)CC3(C)CCC(c4ccc(Cl)cc4)=C(CN4CCN(c5ccc(C(=O)NS(=O)(=O)c6ccc(N[C@H](CCN7CCOCC7)CSc7ccccc7)c(S(=O)(=O)C(F)(F)F)c6)cc5)CC4)C3)CC2)C(C)(C)C)cc1 (stereo partly shown) [compound 58]		
< 50 nM	< 50 nM	Cc1ncsc1-c1ccc([C@H](C)NC(=O)[C@@H]2C[C@@H](O)CN2C(=O)[C@@H](NC(=O)CCCCCC(=O)N2CCN(CCN(C)CC3(C)CCC(c4ccc(Cl)cc4)=C(CN4CCN(c5ccc(C(=O)NS(=O)(=O)c6ccc(N[C@H](CCN7CCOCC7)CSc7ccccc7)c(S(=O)(=O)C(F)(F)F)c6)cc5)CC4)C3)CC2)C(C)(C)C)cc1 (stereo partly shown) [compound 59]		
< 50 nM	< 50 nM	Cc1ncsc1-c1ccc([C@H](C)NC(=O)[C@@H]2C[C@@H](O)CN2C(=O)[C@@H](NC(=O)CCCCCCC(=O)N2CCN(C(=O)C3(C)CCC(c4ccc(Cl)cc4)=C(CN4CCN(c5ccc(C(=O)NS(=O)(=O)c6ccc(N[C@H](CCN7CCOCC7)CSc7ccccc7)c(S(=O)(=O)C(F)(F)F)c6)cc5)CC4)C3)CC2)C(C)(C)C)cc1 (stereo partly drawn) [compound 65, (2S,4R)-1-((2S)-2-(8-(4-(4′-chloro-4-methyl-6-((4-(4-(((4-(((R)-4-morpholino-1-(phenylthio)butan-2-yl)amino)-3-((trifluoromethyl)sulfonyl)phenyl)sulfonyl)carbamoyl)phenyl)piperazin-1-yl)methyl)-2,3,4,5-tetrahydro-[1,1′-biphenyl]-4-carbonyl)piperazin-1-yl)-8-oxooctanamido)-3,3-dimethylbutanoyl)-4-hydroxy-N—((S)-1-(4-(4-methylthiazol-5-yl)phenyl)ethyl)pyrrolidine-2-carboxamide]		
< 50 nM	< 50 nM	Cc1ncsc1-c1ccc([C@H](C)NC(=O)[C@@H]2C[C@@H](O)CN2C(=O)[C@@H](NC(=O)CCCCCCCC(=O)N2CCN(C(=O)C3(C)CCC(c4ccc(Cl)cc4)=C(CN4CCN(c5ccc(C(=O)NS(=O)(=O)c6ccc(N[C@H](CCN7CCOCC7)CSc7ccccc7)c(S(=O)(=O)C(F)(F)F)c6)cc5)CC4)C3)CC2)C(C)(C)C)cc1 (stereo partly drawn) [compound 66, (2S,4R)-1-((2S)-2-(9-(4-(4′-chloro-4-methyl-6-((4-(4-(((4-(((R)-4-morpholino-1-(phenylthio)butan-2-yl)amino)-3-((trifluoromethyl)sulfonyl)phenyl)sulfonyl)carbamoyl)phenyl)piperazin-1-yl)methyl)-2,3,4,5-tetrahydro-[1,1′-biphenyl]-4-carbonyl)piperazin-1-yl)-9-oxononanamido)-3,3-dimethylbutanoyl)-4-hydroxy-N—((S)-1-(4-(4-methylthiazol-5-yl)phenyl)ethyl)pyrrolidine-2-carboxamide]		
